The results in this text go back to PMC6904362, “Omeprazole Treatment Enhances Nitrogen Use Efficiency Through Increased Nitrogen Uptake and Assimilation in Corn” (Frontiers in Plant Science, 2019).

The structures appear in SMILES notation.

The test system of this assay is T1, purified NADH-Nitrate Reductase (NR) from Arabidopsis thaliana.
T1 construct: gene NIA2; commercial Arabidopsis NR is probably recombinant NIA2
Nature of the assay: NR activity assay, nitrite detection (sulphanilamide/NED, […] nm), nonlinear regression. The assay is classed as biochemical. The settings on record: 0.8 mM NADH, 50 mM Hepes/KOH pH 7.5, FAD, Na2MoO4; nitrate 0.08-1.5 mM; no omeprazole.

By Km is commonly meant the substrate concentration at which the rate is half of its maximum. `O=[N+]([O-])O` [NO3 ^-, nitrate]: the Km amounted to 408 µM.
